# According to patent publication US10821100B2, “Triazolone compounds as mPGES-1 inhibitors” (Glenmark Pharmaceuticals S.A., priority 2012, dated 2020):
# Biological target: T1, Recombinant human mPGES-1 (Homo sapiens, UniProt O14684)
# T1 construct: made in house; host or cells: CHO cells (crude microsomal fractions)
# T1 sequence (O14684 1-152): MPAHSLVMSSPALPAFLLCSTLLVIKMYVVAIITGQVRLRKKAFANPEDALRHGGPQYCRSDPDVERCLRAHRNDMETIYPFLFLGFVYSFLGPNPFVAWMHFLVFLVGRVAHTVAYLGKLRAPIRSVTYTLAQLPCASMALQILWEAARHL
# Experiment: In-vitro screening of mPGES-1 inhibitors (inhibition of PGE2 formation from PGH2, HTRF detection)
# Assay type: biochemical
# Conditions: mPGES-1 enzyme; for inhibition at 1 µM: 1 μM test compound, read-out: Percentage inhibition at 1 μM; for inhibition at 1 µM / inhibition at 10 µM: crude microsomal fractions; for inhibition at 10 µM: 10 μM test compound, read-out: Percentage inhibition at 10 μM; for IC50: class symbols
# Method in brief: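 Crude CHO-expressed microsomes (40–60 μg/mL protein) preincubated 10 min with compound in 0.1 M potassium phosphate/2 mM EDTA containing 2.5 mM GSH, 0.5% DMSO final. PGH2 (15 μM) reacted 1 min, stopped with stannous chloride. PGE2 quantified by HTRF, IC50 from nonlinear regression of percent inhibition.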
SMILES,inhibition at 1 µM,inhibition at 10 µM,IC50
"O=c1[nH]c(-c2c(F)cccc2Cl)nn1-c1ccc(Nc2cccc(C(F)(F)F)c2)cc1 [Example-9, 5-(2-Chloro-6-fluorophenyl)-2-(4-{[3-(trifluoromethyl)phenyl]amino}phenyl)-2,4-dihydro-3H-1,2,4-triazol-3-one]",1.53%,23.2%,–
"O=C(Nc1ccc(F)c(C(F)(F)F)c1)c1ccc(-n2nc(-c3c(F)cccc3Cl)[nH]c2=O)cc1 [Example-32, 4-(3-(2-Chloro-6-fluorophenyl)-5-oxo-4,5-dihydro-1H-1,2,4-triazol-1-yl)-N-(4-fluoro-3-(trifluoromethyl)phenyl)benzamide]",88.8%,94%,50 to 100 nM
"COc1cc(-n2nc(-c3c(F)cccc3Cl)[nH]c2=O)ccc1C#Cc1cc(Cl)ccc1Cl [Example-59, 3-(2-Chloro-6-fluorophenyl)-1-(4-((2,5-dichlorophenyl)ethynyl)-3-methoxyphenyl)-1H-1,2,4-triazol-5(4H)-one]",93.9%,96.8%,< 50 nM
"CC(C)(C)C(=O)NCc1ccc(Cl)c(-c2nn(-c3ccc(Cl)c(Cl)c3)c(=O)[nH]2)c1F [Example-83, N-(4-Chloro-3-(1-(3,4-dichlorophenyl)-5-oxo-4,5-dihydro-1H-1,2,4-triazol-3-yl)-2-fluorobenzyl)pivalamide]",97.5%,99.9%,< 50 nM
"COc1cc(-n2nc(-c3c(Cl)cccc3C#N)[nH]c2=O)ccc1C(=O)Nc1ccc(F)c(C(F)(F)F)c1 [Example-73, 4-(3-(2-Chloro-6-cyanophenyl)-5-oxo-4,5-dihydro-1H-1,2,4-triazol-1-yl)-N-(4-fluoro-3-(trifluoromethyl)phenyl)-2-methoxybenzamide]",92.4%,92.4%,< 50 nM
"COc1cc(-n2nc(-c3c(F)cccc3Cl)[nH]c2=O)ccc1C(=O)Nc1ccc(C)cc1F [Example-39, 4-(3-(2-Chloro-6-fluorophenyl)-5-oxo-4,5-dihydro-1H-1,2,4-triazol-1-yl)-N-(2-fluoro-4-methylphenyl)-2-methoxybenzamide]",90.1%,96.4%,50 to 100 nM
"CC(C)(CF)C(=O)NCc1cnc(C(F)F)c(-c2nn(-c3ccc(C(F)(F)F)cc3)c(=O)[nH]2)c1 [Example-192, 3-Fluoro-N-((6-(difluoromethyl)-5-(1-(4-(trifluoromethyl)phenyl)-4,5-dihydro-5-oxo-1H-1,2,4-triazol-3-yl)pyridin-3-yl)methyl)-2,2-dimethylpropanamide]",99.3%,99.3%,< 50 nM
"Cc1cc(C)n(Cc2ccc(-c3nn(-c4cc(CNC(=O)C(C)(C)C)ccc4Cl)c(=O)[nH]3)cc2)n1 [Example-172, N-(4-Chloro-3-(4,5-dihydro-3-(4-((3,5-dimethyl-1H-pyrazol-1-yl)methyl)phenyl)-5-oxo-1,2,4-triazol-1-yl)benzyl)pivalamide]",91.9%,99%,> 100 nM
"O=c1[nH]c(-c2c(F)cccc2Cl)nn1-c1ccc(-c2nc(-c3ccc(F)cc3)no2)cc1 [Example-30, 3-(2-Chloro-6-fluorophenyl)-1-(4-(3-(4-fluorophenyl)-1,2,4-oxadiazol-5-yl)phenyl)-1H-1,2,4-triazol-5(4H)-one]",89.6%,94.5%,< 50 nM
"O=C(NCc1ccc(Cl)c(-c2nn(-c3ccc(C(F)(F)F)cc3)c(=O)[nH]2)c1)[C@H]1CCCO1 [Example-101, (R)—N-(4-Chloro-3-(5-oxo-1-(4-(trifluoromethyl)phenyl)-4,5-dihydro-1H-1,2,4-triazol-3-yl)benzyl)tetrahydrofuran-2-carboxamide]",95%,98.2%,< 50 nM
